Assay results published in patent US10849983B2, “Development of soluble albuminated curcumin for application in cancer therapy” (Sree Chitra Tirunal Institute for Medical Sciences and …, priority 2013, dated 2020).

Experiments:
[1] = system: prostate cancer (PC-3) cells; test: PC-3 cells, phase contrast microscopy and Live/Dead (Annexin V) assay; format: cell-based, human; settings: 24h, phase contrast microscopy, curcumin in DMSO
Description: (§1) To study the effect of the drug conjugate on cancer cells, Lung (A549), Leukemia (K562), & Prostate (PC-3) cell lines were procured from NCCS, Pune. On receipt, the cell lines were sub cultured and sufficient numbers of vials were stored in […]. deep freezer. To study the effect of curcumin on angiogenesis, primary endothelial cells isolated from sheep was used. The effects on primary human fibroblast cells were also studied. Each cell line was maintained in their respective recommended media. A549, PC3 and fibroblast cells were maintained in DMEM media with 10% FBS. K562 cells were maintained in IMDM media supplemented with 10% FBS and endothelial cells in MCDB media with 10% FBS, L-ascorbic acid, VEGF and L-Glutamine.
(§2) The effect of curcumin was analyzed on cell apoptosis and cycle arrest. Different concentrations of the alb-cur conjugate were added into the cultures. The concentrations employed were 250 μM, 500 μM, and 1000 μM which were achieved by adding stock prepared by dissolving lyophilized curcumin-albumin conjugate.
(§3) The efficacy of the loaded drug was analyzed using solid tumor cell lines of prostate cancer (PC-3) [FIGS. 4 & 5] lung cancer (A549) [FIGS. 6 & 7B] and suspension cell line of leukemia (K562) [FIGS. 7A & 8]. The toxicity of the conjugated albumin-curcumin complex was assed by Live/Dead assay using Annexin V in primary fibroblasts. […]

lung cancer (A549) cells = test: A549 lung cancer cells, phase contrast microscopy, cell cycle analysis and apoptosis by flow cytometry; format: cell-based, human; settings: 48h, Flowjo
Description: as §1, §2, §3

Row | SMILES | morphology of PC-3 cells [1] | cell cycle distribution of A549 cells (positive control) (lung cancer (A549) cells)
1 | COc1cc(/C=C/C(=O)CC(=O)/C=C/c2ccc(O)c(OC)c2)ccc1O [cur/DMSO, curcumin] | normal morphological features | 
2 | O=c1[nH]cc(F)c(=O)[nH]1 [Example 5-FU] |  | slight increase in the population of cells in the S phase
